PMC4146677 (Bioorganic & medicinal chemistry letters, 2014)
In brackets after ≈: the same amount, converted by molar mass. Several values for one entry are separate records, joined by “and”; a condition that tells them apart may be missing. Equal values may be shown once. Entries after “also recorded” stand apart in the source; their conditions may differ. Read-outs that look alike come from different tables or passages of the source. Marks after values point to notes of the source that are not given here.

Legend:
zebrafish larvae = assay: General toxicity in zebrafish larvae; details: treated 3 to 6 dpf, MTC at 6 dpf
Huh7 cells = assay: Host cell viability of Huh7 cells; assay type: cell-based, human; details: Alamar Blue; up to the highest test concentrations
zebrafish larvae liver = assay: Hepatotoxicity in zebrafish larvae; assay type: in vivo, zebrafish (Danio rerio); details: 6 dpf; for Hepatotoxic effects / liver phenotype at the MTC: 2-HDA 0.8 μM, 2-ODA 1 μM, 2-TDA 1.2 μM
[1] = target: Leishmania topoisomerase IB enzyme; details: read-out: EC50 Leishmania topoisomerase IB; ref [4]; cited from earlier work
PfFabZ [2] = target: T1, PfFabZ (Plasmodium falciparum, UniProt Q965D7); assay: PfFabZ enzyme inhibition assay; assay type: biochemical, P. falciparum
T1 sequence (Q965D7 19-230): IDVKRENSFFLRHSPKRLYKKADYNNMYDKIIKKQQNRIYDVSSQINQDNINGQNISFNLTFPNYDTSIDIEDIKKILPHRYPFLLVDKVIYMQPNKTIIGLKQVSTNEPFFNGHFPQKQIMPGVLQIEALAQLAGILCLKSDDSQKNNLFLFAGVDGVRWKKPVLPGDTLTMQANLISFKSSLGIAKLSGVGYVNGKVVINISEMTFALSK

LS P. berghei = assay: Liver stage P. berghei infection of Huh7 hepatoma cells; assay type: cell-based, Plasmodium berghei; details: for Effect on P. berghei infection of Huh7 cells: 48 h treatment, Fig. 1
L6 cells = details: cited from earlier work
BS P. falciparum K1 [3] = assay: Blood stage antiplasmodial activity, 3H-hypoxanthine method; assay type: cell-based; details: Plasmodium falciparum, K1, read-out: IC50 BS P. falciparum
PfFabG [4] = target: T2, PfFabG (Plasmodium falciparum, UniProt Q8I2S7); assay: PfFabG enzyme inhibition assay; assay type: biochemical, P. falciparum
PfFabI [5] = target: T3, PfFabI (Plasmodium falciparum, UniProt Q9BH77); details: values marked **, ref [3] (table footnote), [5], cited from earlier work
T3 sequence (Q9BH77 22-432): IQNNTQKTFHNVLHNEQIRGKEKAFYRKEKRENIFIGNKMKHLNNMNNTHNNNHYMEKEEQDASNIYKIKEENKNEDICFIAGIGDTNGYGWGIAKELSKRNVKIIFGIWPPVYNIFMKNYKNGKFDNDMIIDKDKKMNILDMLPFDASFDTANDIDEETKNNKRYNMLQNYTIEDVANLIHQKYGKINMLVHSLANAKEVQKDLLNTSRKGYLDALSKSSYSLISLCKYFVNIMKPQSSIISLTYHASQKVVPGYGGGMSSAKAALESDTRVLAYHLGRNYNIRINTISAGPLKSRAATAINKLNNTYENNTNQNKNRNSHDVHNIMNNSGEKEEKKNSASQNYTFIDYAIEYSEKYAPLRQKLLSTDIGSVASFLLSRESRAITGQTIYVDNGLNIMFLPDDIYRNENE

PfFabZ [6] = target: T1, PfFabZ; details: values marked **, ref [3] (table footnote), [5], cited from earlier work
BS P. falciparum K1 [7] = details: K1 strain; values marked **; ref [3] (table footnote), [5]; cited from earlier work
PfFabI [8] = target: T3, PfFabI; assay: PfFabI enzyme inhibition assay; assay type: biochemical, P. falciparum
[9] = ref [6]; cited from earlier work
[10] = target: PfFAS-II enzymes PfFabI, PfFabZ, PfFabG; assay: PfFAS-II enzyme inhibition, range over PfFabI, PfFabZ and PfFabG; assay type: biochemical, P. falciparum; details: range over the three enzymes
Leishmania donovani = details: read-out: EC50 against Leishmania donovani; ref [4]; cited from earlier work
[11] = tested on: LS forms of Plasmodium yoelii; details: ref [5], cited from earlier work
PfFabG [12] = target: T2, PfFabG; details: values marked **; ref [3] (table footnote), [5]; cited from earlier work
[13] = rat skeletal myoblasts, values marked *, ref [2]

Molecule: CCCCCCCCCCCC#CC(=O)O [2-TDA, 2-tetradecynoic acid]
- Maximum-tolerated concentration (MTC) (zebrafish larvae): 0.27 µg/mL
- Effect on cell viability of Huh7 host cells (Huh7 cells): no apparent effects on cell viability
- Hepatotoxic effects / liver phenotype at the MTC (zebrafish larvae liver; 3 days of exposure): induced liver toxicity; also recorded: round-shaped liver with reduced fluorescence
- Hepatotoxic effects / liver phenotype (zebrafish larvae liver; 1.0 μM = 0.22 μg/ml, below the MTC): did not induce any apparent signs of liver toxicity
- EC50 [1]: 68 µM
- IC50 PfFabZ (PfFabZ [2]): 3.5 µg/mL (≈ 15.6 µM)
- Effect on P. berghei infection of Huh7 cells (LS P. berghei): greatly impaired infection
- IC50 L6 cell toxicity (L6 cells; [13]): 9.2* μg/ml
- IC50 (BS P. falciparum K1 [3]): 27.3 µg/mL (≈ 122 µM)
- IC50 PfFabG (PfFabG [4]): 5.5 µg/mL (≈ 24.5 µM)

Molecule: COc1cc([C@@H]2c3cc4c(cc3[C@H](O)[C@H]3COC(=O)[C@H]23)OCO4)cc(OC)c1OC [Podophyllotoxin, reference compound]
- IC50 L6 cell toxicity (L6 cells; [13]): 0.02^e,* μg/ml

Molecule: CCN(CC)CCCC(C)Nc1ccnc2cc(Cl)ccc12 (stereo not drawn) [Chloroquine, reference compound]
- IC50 (BS P. falciparum K1 [3]): 0.117 µg/mL (≈ 0.366 µM)

Molecule: CCCCCCCCCCCCCCCC(=O)O [PA, palmitic acid, reference compound]
- IC50 (PfFabI [5]; read-out: IC50 PfFabI): > 390 µM
- IC50 (PfFabZ [6]; read-out: IC50 PfFabZ): > 390 µM
- Hepatotoxic effects / liver phenotype (zebrafish larvae liver; 3 days of exposure, 700 μM = 179.2 μg/ml): no hepatotoxic effects; also recorded: normal liver
- LS activity at the highest test concentration (LS P. berghei; 25 μg/ml): devoid of any LS activity
- IC50 L6 cell toxicity (L6 cells): 52.7** μg/ml
- IC50 BS P. falciparum (BS P. falciparum K1 [7]): 3.8** μg/ml

Molecule: CCCCCCCCCCCCCCCC#CC(=O)O [2-ODA, 2-octadecynoic acid]
- IC50 PfFabI (PfFabI [8]): 0.30 µg/mL (≈ 1.07 µM)
- Effect on cell viability of Huh7 host cells (Huh7 cells): no apparent effects on cell viability
- Hepatotoxic effects / liver phenotype at the MTC (zebrafish larvae liver; 3 days of exposure): non-hepatotoxic; also recorded: normal liver
- EC50 [1]: 5 µM
- IC50 PfFabZ (PfFabZ [2]): 0.28 µg/mL (≈ 0.998 µM)
- Critical micelle concentration (CMC) [9]: 50 µg/mL
- Effect on P. berghei infection of Huh7 cells (LS P. berghei): greatly impaired infection
- IC50 L6 cell toxicity (L6 cells; [13]): 5.6* μg/ml
- IC50 PfFabG (PfFabG [4]): 0.80 µg/mL (≈ 2.85 µM)
- IC50 values against PfFabI, PfFabZ and PfFabG (range) [10]: 0.28 to 0.80 µg/mL
- EC50 (Leishmania donovani): 11 µM

Molecule: CC(=O)Nc1ccc(O)cc1 [paracetamol, reference compound]
- Hepatotoxic effects / liver phenotype (zebrafish larvae liver; 3 days of exposure, 300 μM, positive control): smaller-sized liver

Molecule: 2-hexadecynoic acid [2-HDA]
- Maximum-tolerated concentration (MTC) (zebrafish larvae): 0.20 μg/ml and 0.8 μM
- IC50 PfFabI (PfFabI [5]): 0.38** μg/ml
- IC50 PfFabZ (PfFabZ [6]): 0.58** μg/ml
- Hepatotoxic effects / liver phenotype at the MTC (zebrafish larvae liver; 3 days of exposure): non-hepatotoxic; also recorded: normal liver
- EC50 [1]: 28 µM
- IC50 LS P. yoelii ([11]; assessed by flow cytometry): 15.3 µg/mL
- IC50 LS P. yoelii ([11]; assessed by immunofluorescence activity): 4.88 µg/mL
- Critical micelle concentration (CMC) [9]: > 90 µg/mL
- IC50 L6 cell toxicity (L6 cells): 85.9** μg/ml
- IC50 BS P. falciparum (BS P. falciparum K1 [7]): 10.4** μg/ml
- IC50 PfFabG (PfFabG [12]): 3.5** μg/ml
- EC50 (Leishmania donovani): 17.8 µM
